Counter-ions that a name gives are not always drawn. Like-named read-outs stand apart in the source and are kept apart here. Marks after values point to notes of the source that are not given here.
Experiments:
[1] = tested on: human cervical carcinoma cell line Hela; experiment: In vitro cytotoxicity assay, Sulforhodamine B (SRB), Hela; assay type: cell-based
[2] = tested on: sarcoma 180; experiment: In vivo antitumor assay on Sarcoma 180 (S180) in mice; settings: for inhibition in vivo at 10 mg/kg / inhibition in vivo at 20 mg/kg / inhibition in vivo at 40 mg/kg: Mus musculus, Sarcoma-180, iv
[3] = tested on: human non-small cell lung cancer cell line A-549; experiment: In vitro cytotoxicity assay, Sulforhodamine B (SRB), A-549; assay type: cell-based
[4] = tested on: human non-small cell lung cancer (A549) xenografts; experiment: Nude mice models bearing human non-small cell lung cancer (A549) xenografts; settings: for efficacy against A549 xenografts (in words) / toxicity in the mice (in words): iv
[5] = depending on its concentration and action time; read-out: IC50, in vitro activity; cited from earlier work
[6] = tested on: human non-small cell lung cancer (A549) xenografts; settings: mouse, in vivo
[7] = Homo sapiens, HeLa, 72 h, read-out: Hela (IC50, nM)
[8] = read-out: Inhibition rate %, 10 mg/kg, iv, d 1, 4
[9] = read-out: Inhibition rate %, 20 mg/kg, iv d 1
[10] = Homo sapiens, A549, 72 h, read-out: A549 (IC50, nM)
[11] = 1.5 mg/kg iv once at d0, dn: 12 days after the first administration
[12] = 3 mg/kg iv once at d0, dn: 12 days after the first administration
[13] = 6 mg/kg iv once at d0, dn: 12 days after the first administration
[14] = BM48 tartrate once at d0, vinorelbine tartrate twice at d0 and d4
[15] = read-out: Inhibition rate %, 20 mg/kg, iv, d 1, 4
[16] = read-out: Inhibition rate %, 40 mg/kg, iv, d 1, 4

Row | SMILES | IC50 [1, 7] [nM] | Average weight (g) At sacrifice ([2]; 10 mg/kg, iv, d 1, 4) [g] | Tumor Weight (g) X ± SD ([2]; 10 mg/kg, iv, d 1, 4) [g] | inhibition in vivo at 10 mg/kg [2, 8] [%] | cell-based efficacy, inhibition of tumor cell proliferation (in words) [3] | IC50 [3, 10] [nM] | Average weight (g) At sacrifice ([2]; 20 mg/kg, iv, d 1, 4) [g] | Tumor Weight (g) X ± SD ([2]; 20 mg/kg, iv, d 1, 4) [g] | Average weight (g) At sacrifice ([2]; 40 mg/kg, iv, d 1, 4) [g] | Tumor Weight (g) X ± SD ([2]; 40 mg/kg, iv, d 1, 4) [g] | inhibition in vivo at 20 mg/kg [2, 15] [%] | inhibition in vivo at 40 mg/kg [2, 16] [%] | other results
1 | CCC(=O)NCC1(O)[C@H](OC(C)=O)[C@]2(CC)C=CCN3CC[C@@]4(c5cc([C@@]6(C(=O)OC)C[C@@H]7C=C(CC)CN(CCc8c6[nH]c6ccccc86)C7)c(OC)cc5N(C)[C@@H]14)[C@@H]32 (some centres unmarked) [BM27] | 13.4 | 21.4 | 0.25 ± 0.06 | 84.4 | excellent cell-based efficacy | 42.9 |  |  |  |  |  |  | Average weight (g) At sacrifice ([2]; 20 mg/kg, iv d 1): 20.7 g; Tumor Weight (g) X ± SD ([2]; 20 mg/kg, iv d 1): 0.16 ± 0.03 g; inhibition in vivo at 20 mg/kg [2, 9]: 90%
2 | CCC1=C[C@@H]2CN(CCc3c([nH]c4ccccc34)[C@@](C(=O)OC)(c3cc4c(cc3OC)N(C)[C@H]3C(O)(CNC(=O)c5ccc6c(c5)OCO6)[C@H](OC(C)=O)[C@]5(CC)C=CCN6CC[C@]43C65)C2)C1 (some centres unmarked) [BM47] | 19 | 25.3 | 0.67 ± 0.07 | 58.1 | excellent cell-based efficacy | 14.4 |  |  |  |  |  |  | Average weight (g) At sacrifice ([2]; 20 mg/kg, iv d 1): 23.3 g; Tumor Weight (g) X ± SD ([2]; 20 mg/kg, iv d 1): 0.54 ± 0.17 g; inhibition in vivo at 20 mg/kg [2, 9]: 66.3%
3 | CCC1=C[C@@H]2CN(CCc3c([nH]c4ccccc34)[C@@](C(=O)OC)(c3cc4c(cc3OC)N(C)[C@H]3C(O)(CNC(=O)OC)[C@H](OC(C)=O)[C@]5(CC)C=CCN6CC[C@]43[C@@H]65)C2)C1 (some centres unmarked) [BM48] | 34.8 | 27.1 | 0.85 ± 0.11 | 46.9 | excellent cell-based efficacy | 75.3 |  |  |  |  |  |  | T/C (%) ([4]; 1.5 mg/kg iv once at d0): 74.0%; Body weight (g) dn [4, 11]: 21.3 g; TV (mm^3) x ± SD dn [4, 11]: 2080 ± 542 mm^3; RTV x ± SD ([4]; 1.5 mg/kg iv once at d0, relative tumor volume): 8.18 ± 2.20; T/C (%) ([4]; 3 mg/kg iv once at d0): 62.9* %; Body weight (g) dn [4, 12]: 20.4 g; TV (mm^3) x ± SD dn [4, 12]: 1545 ± 410 mm^3; RTV x ± SD ([4]; 3 mg/kg iv once at d0, relative tumor volume): 6.96 ± 1.79; T/C (%) ([4]; 6 mg/kg iv once at d0): 31.5* %; Body weight (g) dn [4, 13]: 18.8 g; TV (mm^3) x ± SD dn [4, 13]: 808 ± 336 mm^3; RTV x ± SD ([4]; 6 mg/kg iv once at d0, relative tumor volume): 3.48 ± 1.83; efficacy against A549 xenografts (in words) [4, 14]: significantly inhibited; toxicity in the mice (in words) [4, 14]: appeared to show toxicity after the administration of BM48, but could recover well later; efficacy against A549 xenografts (in words) ([4]; BM48 tartrate once at d0, vinorelbine tartrate twice at d0 and d4, listed as BM48 tartrate): comparable to or even a little better than vinorelbine tartrate; Average weight (g) At sacrifice ([2]; 20 mg/kg, iv d 1): 24.2 g; Tumor Weight (g) X ± SD ([2]; 20 mg/kg, iv d 1): 0.35 ± 0.03 g; inhibition in vivo at 20 mg/kg [2, 9]: 78.1%
4 | CC[C@]12C=CCN3CC[C@@]4(c5cc([C@@]6(C(=O)OC)C[C@@H]7C[C@@H](C(C)(F)F)CN(CCc8c6[nH]c6ccccc86)C7)c(OC)cc5N(C)[C@H]4C(O)(COC(C)=O)[C@@H]1OC(C)=O)[C@@H]32 (some centres unmarked) [BM75] | > 1000 |  |  |  |  | > 1000 | 30.9 | 1.53 ± 0.56 | 33.3 | 1.85 ± 0.32 | 4.4 | 0 | 
5 | CC[C@]12C=CCN3CC[C@@]4(c5cc([C@@]6(C(=O)OC)C[C@@H]7C[C@@H](C(C)(F)F)CN(CCc8c6[nH]c6ccccc86)C7)c(OC)cc5N(C)[C@H]4C(O)(CNC(=O)OCC(C)C)[C@@H]1OC(C)=O)[C@@H]32 (some centres unmarked) [BM80] | > 1000 |  |  |  |  | > 1000 | 34.5 | 1.55 ± 0.34 | 32.5 | 1.58 ± 0.12 | 3.1 | 1.2 | 
6 | CCC1=C[C@@H]2CN(CCc3c([nH]c4ccccc34)[C@@](C(=O)OC)(c3cc4c(cc3OC)N(C)[C@H]3[C@@](O)(C(=O)OC)[C@H](OC(C)=O)[C@]5(CC)C=CCN6CC[C@]43[C@@H]65)C2)C1 [Anhydrovinblastine tartrate, anhydrovinblastine tartrate, reference compound] |  | 27.9 | 0.49 ± 0.10 |  |  |  |  |  |  |  |  |  | IC50 ([1]; SRB assay, 72 hours incubation, ditartrate of all compounds used, read-out: Hela (IC50)): 40.2 nM; Inhibition rate % ([2]; 10 mg/kg, iv, d 1, 4): 69.4* %; IC50 ([3]; SRB assay, 72 hours incubation, ditartrate of all compounds used, read-out: A549 (IC50)): 60.2 nM
7 | CC[C@]12C=CCN3CC[C@@]4(c5cc([C@@]6(C(=O)OC)C[C@@H]7C[C@@H](C(C)(F)F)CN(CCc8c6[nH]c6ccccc86)C7)c(OC)cc5N(C)[C@H]4C(O)(CNC(=O)OC)[C@@H]1OC(C)=O)[C@@H]32 (some centres unmarked) [BM79] | > 1000 |  |  |  |  | > 1000 | 33.0 | 1.47 ± 0.15 | 29.5 | 0.84 ± 0.49 | 8.1 | 47.5 | 
8 | CC[C@]12C=CCN3CC[C@@]4(c5cc([C@@]6(C(=O)OC)C[C@@H]7C[C@@H](C(C)(F)F)CN(Cc8c6[nH]c6ccccc86)C7)c(OC)cc5N(C)[C@H]4[C@@](O)(C(=O)OC)[C@@H]1OC(C)=O)[C@@H]32 [Vinflunine, reference compound] |  |  |  |  |  |  |  |  | 28.4 | 0.44 ± 0.13 |  | 72.5 | IC50 [5]: 60 to 300 nM
9 | CCC1=C[C@@H]2CN(C1)Cc1c([nH]c3ccccc13)[C@@](C(=O)OC)(c1cc3c(cc1OC)N(C)[C@H]1[C@@](O)(C(=O)OC)[C@H](OC(C)=O)[C@]4(CC)C=CCN5CC[C@]31[C@@H]54)C2 [Vinorelbine tartrate, vinorelbine tartrate, reference compound] |  | 27.5 | 0.60 ± 0.23 |  |  |  |  |  |  |  |  |  | Body weight (g) dn [6]: 16.4 g; toxicity in the mice (in words) [4, 14]: higher toxicity; RTV x ± SD ([4]; mouse, in vivo): 2.66 ± 1.18; T/C (%) ([4]; mouse, in vivo): 24.1* %; TV (mm^3) x ± SD dn ([4]; mouse, in vivo): 550 ± 206 mm^3; efficacy against A549 xenografts (in words) ([4]; mouse, in vivo): a little better efficacy than BM48 tartrate; IC50 ([1]; Homo sapiens, HeLa, SRB assay, 72 hours incubation, ditartrate of all compounds used, read-out: Hela (IC50)): 9.1 nM; inhibition in vivo at 10 mg/kg ([2]; read-out: Inhibition rate %): 62.5%; IC50 ([3]; Homo sapiens, A549, SRB assay, 72 hours incubation, ditartrate of all compounds used, read-out: A549 (IC50)): 23.1 nM
10 | CCC1=C[C@@H]2CN(CCc3c([nH]c4ccccc34)[C@@](C(=O)OC)(c3cc4c(cc3OC)N(C)[C@H]3C(O)(CNC(=O)OCC5CC5)[C@H](OC(C)=O)[C@]5(CC)C=CCN6CC[C@]43[C@@H]65)C2)C1 (some centres unmarked) [BM57] | 13.2 | 25.2 | 0.26 ± 0.07 | 83.8 | excellent cell-based efficacy | 60.6 |  |  |  |  |  |  | 
11 | CCC(=O)NCC1(O)[C@H](OC(C)=O)[C@]2(CC)C=CCN3CC[C@@]4(c5cc([C@@]6(C(=O)OC)C[C@@H]7C[C@@H](C(C)(F)F)CN(CCc8c6[nH]c6ccccc86)C7)c(OC)cc5N(C)[C@@H]14)[C@@H]32 (some centres unmarked) [BM78] | > 1000 |  |  |  |  | > 1000 | 30.1 | 0.76 ± 0.29 | 29.0 | 0.36 ± 0.11 | 52.5 | 77.5 | Average weight (g) At sacrifice ([2]; 40 mg/kg, iv d 1): 28.8 g; Tumor Weight (g) X ± SD ([2]; 40 mg/kg, iv d 1): 0.48 ± 0.15 g; inhibition in vivo at 40 mg/kg ([2]; read-out: Inhibition rate %, 40 mg/kg, iv d 1): 70%; antitumor activity in vivo (in words) ([2]; S180 in mice, iv): strong antitumor activity in vivo

Source: patent publication US8168647B2, “Vinblastine derivatives, their preparation, use and pharmaceutical compositions comprising the said derivatives” (Shanghai Institute of Materia Medica Chinese Academy of …, priority 2007, dated 2012)
